Measurements taken from PubChem BioAssay (NCI).
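GI50 marks 50% less growth. At the TGI there is no net growth.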

Assays:
Test in all cases: NCI tumour cell line growth inhibition, 384-well format; in the data active = GI50 below about 0.43 µM; inactive = the rest
[1] = tested on: A498 renal
[2] = tested on: A549 NSCLC
[3] = tested on: ACHN renal
[4] = tested on: BT-549 breast
[5] = tested on: CAKI-1 renal
[6] = tested on: COLO 205 colon
[7] = tested on: DU-145 prostate
[8] = tested on: EKVX NSCLC
[9] = tested on: HCC-2998 colon
[10] = tested on: HCT-116 colon
[11] = tested on: HCT-15 colon
[12] = tested on: HL-60(TB) leukemia
[13] = tested on: HOP-62 NSCLC
[14] = tested on: HOP-92 NSCLC
[15] = tested on: HS 578T breast
[16] = tested on: HT29 colon
[17] = tested on: IGROV1 ovarian
[18] = tested on: KM12 colon
[19] = tested on: LOX IMVI melanoma
[20] = tested on: M14 melanoma
[21] = tested on: MALME-3M melanoma
[22] = tested on: MCF7 breast
[23] = tested on: MDA-MB-231 breast
[24] = tested on: MDA-MB-435 melanoma
[25] = tested on: MDA-MB-468 breast
[26] = tested on: MOLT-4 leukemia
[27] = tested on: NCI-H226 lung
[28] = tested on: NCI-H23 lung
[29] = tested on: NCI-H322M lung
[30] = tested on: NCI-H460 NSCLC
[31] = tested on: NCI-H522 lung
[32] = tested on: NCI/ADR-RES ovarian
[33] = tested on: OVCAR-3 ovarian
[34] = tested on: OVCAR-4 ovarian
[35] = tested on: OVCAR-5 ovarian
[36] = tested on: OVCAR-8 ovarian
[37] = tested on: PC-3 prostate
[38] = tested on: RPMI-8226 leukemia
[39] = tested on: RXF 393 renal
[40] = tested on: SF-268 CNS
[41] = tested on: SF-295 CNS
[42] = tested on: SF-539 CNS
[43] = tested on: SK-MEL-28 melanoma
[44] = tested on: SK-MEL-5 melanoma
[45] = tested on: SK-OV-3 ovarian
[46] = tested on: SN12C renal
[47] = tested on: SNB-19 CNS
[48] = tested on: SNB-75 CNS
[49] = tested on: SR leukemia
[50] = tested on: T-47D breast
[51] = tested on: TK-10 renal
[52] = tested on: U251 glioblastoma
[53] = tested on: UACC-257 melanoma
[54] = tested on: UACC-62 melanoma

Cn1ncc(Cl)c1-c1cc(C(=O)N[C@H](CN)Cc2ccc(F)c(F)c2)oc1Cl
7.49 µM: TGI [16]
6.67 µM: TGI [24]
14.9 µM: TGI [3] | TGI [47]
active: GI50 [1] 0.0257 µM | GI50 [17] 0.0231 µM | GI50 [18] 0.364 µM | GI50 [22] 0.13 µM | GI50 [25] 0.0719 µM | GI50 [26] 0.06 µM | GI50 [30] 0.0876 µM | GI50 [37] 0.128 µM | GI50 [39] 0.386 µM | GI50 [42] 0.0794 µM | GI50 [48] 0.211 µM | GI50 [50] 0.137 µM
10.9 µM: TGI [13]
2.18 µM: TGI [30] | TGI [39] | TGI [44]
2.99 µM: TGI [38]
11.1 µM: TGI [28] | TGI [46]
14.1 µM: TGI [33]
16.3 µM: TGI [32]
2.21 µM: TGI [9]
11.2 µM: TGI [14]
0.178 µM: TGI [17]
5.55 µM: TGI [50]
1.79 µM: TGI [25]
2.29 µM: TGI [48]
10.5 µM: TGI [10]
inactive: GI50 [2] 2.66 µM | GI50 [3] 2.77 µM | GI50 [4] 0.586 µM | GI50 [5] 2.23 µM | GI50 [6] 0.833 µM | GI50 [7] 3.72 µM | GI50 [8] 2.07 µM | GI50 [9] 0.772 µM | GI50 [10] 2.33 µM | GI50 [11] 0.702 µM | GI50 [12] 1.26 µM | GI50 [13] 3.01 µM | GI50 [14] 2.36 µM | GI50 [15] 0.711 µM | GI50 [16] 1.03 µM | GI50 [19] 1.94 µM | GI50 [20] 1.49 µM | GI50 [21] 1.05 µM | GI50 [23] 7.04 µM | GI50 [24] 1.82 µM | GI50 [27] 2.54 µM | GI50 [28] 2.7 µM | GI50 [29] 2.34 µM | GI50 [31] 2.24 µM | GI50 [32] 4.1 µM | GI50 [33] 2.17 µM | GI50 [34] 6.6 µM | GI50 [35] 1.57 µM | GI50 [36] 3.31 µM | GI50 [38] 1.54 µM | GI50 [40] 4.7 µM | GI50 [41] 0.527 µM | GI50 [43] 1.14 µM | GI50 [44] 1.01 µM | GI50 [45] 0.431 µM | GI50 [46] 1.96 µM | GI50 [47] 1.48 µM | GI50 [49] 0.517 µM | GI50 [51] 0.569 µM | GI50 [52] 1.14 µM | GI50 [53] 1.05 µM | GI50 [54] 1.06 µM
16.4 µM: TGI [7]
19.9 µM: TGI [23]
13.4 µM: TGI [11]
8.16 µM: TGI [27]
0.782 µM: TGI [1]
1.86 µM: TGI [49]
2.9 µM: TGI [51]
4.56 µM: TGI [35]
3.97 µM: TGI [52]
2.55 µM: TGI [12]
15.6 µM: TGI [36]
2.71 µM: TGI [6]
0.347 µM: TGI [26]
7.94 µM: TGI [31]
8.2 µM: TGI [45]
11 µM: TGI [8]
2.72 µM: TGI [15]
1.92 µM: TGI [42]
2.31 µM: TGI [54]
2.24 µM: TGI [21] | TGI [53]
2.3 µM: TGI [41]
16.9 µM: TGI [40]
2.91 µM: TGI [20]
13.9 µM: TGI [2] | TGI [29]
2.82 µM: TGI [18]
1.8 µM: TGI [22]
19.1 µM: TGI [34]
3.95 µM: TGI [19]
2.45 µM: TGI [43]
2.16 µM: TGI [4] | TGI [37]
12.1 µM: TGI [5]

COc1ccc2c(OCc3nnc4ccc(-c5ccccc5)nn34)ccnc2c1
inactive: GI50 [1] > 100 µM | GI50 [2] > 100 µM | GI50 [3] 42.2 µM | GI50 [4] > 100 µM | GI50 [5] > 100 µM | GI50 [6] > 100 µM | GI50 [7] > 100 µM | GI50 [8] > 100 µM | GI50 [9] > 100 µM | GI50 [10] > 100 µM | GI50 [11] > 100 µM | GI50 [12] > 100 µM | GI50 [13] 60.5 µM | GI50 [14] > 100 µM | GI50 [15] > 100 µM | GI50 [16] > 100 µM | GI50 [17] > 100 µM | GI50 [18] > 100 µM | GI50 [19] > 100 µM | GI50 [20] > 100 µM | GI50 [21] > 100 µM | GI50 [22] > 100 µM | GI50 [23] > 100 µM | GI50 [24] > 100 µM | GI50 [25] > 100 µM | GI50 [26] > 100 µM | GI50 [27] > 100 µM | GI50 [28] > 100 µM | GI50 [29] > 100 µM | GI50 [30] 73.8 µM | GI50 [31] 44.6 µM | GI50 [32] > 100 µM | GI50 [33] 29.8 µM | GI50 [34] 28.9 µM | GI50 [35] > 100 µM | GI50 [36] > 100 µM | GI50 [37] > 100 µM | GI50 [38] > 100 µM | GI50 [39] > 100 µM | GI50 [40] > 100 µM | GI50 [41] > 100 µM | GI50 [42] > 100 µM | GI50 [43] > 100 µM | GI50 [44] > 100 µM | GI50 [45] > 100 µM | GI50 [46] 63 µM | GI50 [47] 50.1 µM | GI50 [48] > 100 µM | GI50 [49] > 100 µM | GI50 [50] > 100 µM | GI50 [51] 48.7 µM | GI50 [52] > 100 µM | GI50 [53] > 100 µM | GI50 [54] > 100 µM
94.6 µM: TGI [33]
> 100 µM: TGI [1] | TGI [2] | TGI [3] | TGI [4] | TGI [5] | TGI [6] | TGI [7] | TGI [8] | TGI [9] | TGI [10] | TGI [11] | TGI [12] | TGI [13] | TGI [14] | TGI [15] | TGI [16] | TGI [17] | TGI [18] | TGI [19] | TGI [20] | TGI [21] | TGI [22] | TGI [23] | TGI [24] | TGI [25] | TGI [26] | TGI [27] | TGI [28] | TGI [29] | TGI [30] | TGI [31] | TGI [32] | TGI [34] | TGI [35] | TGI [36] | TGI [37] | TGI [38] | TGI [39] | TGI [40] | TGI [41] | TGI [42] | TGI [43] | TGI [44] | TGI [45] | TGI [46] | TGI [47] | TGI [48] | TGI [49] | TGI [50] | TGI [51] | TGI [52] | TGI [53] | TGI [54]
